# Measurements published in PubChem BioAssay AID1918933 (Molecular Pharmacology Branch, DTP, NCI, 2023).
# Tested on: 186277-243-T-J2-PDC complex spheroid viability
# Test: Anticancer human tumor 186277-243-T-J2-PDC patient-derived colon adenocarcinoma cell line growth inhibition
# Settings: for IC50: curve of first compound; for viability, T/C: stronger effect = lower value
# Outline: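 Drug combinations with the LSD1 inhibitor iadademstat tested on tumor cells co-cultured as spheroids with endothelial cells and mesenchymal stem cells. Concentrations descended in half-log increments from clinical Cmax or 10 microM.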
# 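Note: 7 day exposure to compounds.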
# 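Throughout, for viability, T/C: 100% = DMSO vehicle control viability.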
smiles,measurement,setting,value
CC1COCCN1c1cc(C2(S(C)(=N)=O)CC2)nc(-c2ccnc3[nH]ccc23)n1 (stereo not given) + NC1CC1c1ccc(-c2cccc(O)c2)cc1,IC50,second compound 0.1 µM,1060 nM
same,IC50,second compound 0.316 µM,1140 nM
same,IC50,second compound 1 µM,1270 nM
same,IC50,second compound 3.16 µM,1190 nM
same,IC50,second compound 10 µM,872 nM
same,"viability, T/C","second compound 0.1 µM, first compound 0.0316 µM",102%
same,"viability, T/C","second compound 0.1 µM, first compound 0.1 µM",99.8%
same,"viability, T/C","second compound 0.1 µM, first compound 0.316 µM",99.6%
same,"viability, T/C","second compound 0.1 µM, first compound 1 µM",52.1%
same,"viability, T/C","second compound 0.1 µM, first compound 3.16 µM",9.5%
same,"viability, T/C","second compound 0.1 µM, first compound 10 µM",5.47%
same,"viability, T/C","second compound 0.316 µM, first compound 0.0316 µM",95.4%
same,"viability, T/C","second compound 0.316 µM, first compound 0.1 µM",97.8%
same,"viability, T/C","second compound 0.316 µM, first compound 0.316 µM",92.2%
same,"viability, T/C","second compound 0.316 µM, first compound 1 µM",55%
same,"viability, T/C","second compound 0.316 µM, first compound 3.16 µM",10.5%
same,"viability, T/C","second compound 0.316 µM, first compound 10 µM",5.49%
same,"viability, T/C","second compound 1 µM, first compound 0.0316 µM",108%
same,"viability, T/C","second compound 1 µM, first compound 0.1 µM",108%
same,"viability, T/C","second compound 1 µM, first compound 0.316 µM",105%
same,"viability, T/C","second compound 1 µM, first compound 1 µM",59.5%
same,"viability, T/C","second compound 1 µM, first compound 3.16 µM",12.5%
same,"viability, T/C","second compound 1 µM, first compound 10 µM",5.36%
same,"viability, T/C","second compound 3.16 µM, first compound 0.0316 µM",104%
same,"viability, T/C","second compound 3.16 µM, first compound 0.1 µM",104%
same,"viability, T/C","second compound 3.16 µM, first compound 0.316 µM",109%
same,"viability, T/C","second compound 3.16 µM, first compound 1 µM",57.5%
same,"viability, T/C","second compound 3.16 µM, first compound 3.16 µM",11.6%
same,"viability, T/C","second compound 3.16 µM, first compound 10 µM",6.19%
same,"viability, T/C","second compound 10 µM, first compound 0.0316 µM",106%
same,"viability, T/C","second compound 10 µM, first compound 0.1 µM",89.6%
same,"viability, T/C","second compound 10 µM, first compound 0.316 µM",92.7%
same,"viability, T/C","second compound 10 µM, first compound 1 µM",44.3%
same,"viability, T/C","second compound 10 µM, first compound 3.16 µM",8%
same,"viability, T/C","second compound 10 µM, first compound 10 µM",4.85%
CCN(c1cc(-c2ccc(CN3CCOCC3)cc2)cc(C(=O)NCc2c(C)cc(C)[nH]c2=O)c1C)C1CCOCC1 + NC1CC1c1ccc(-c2cccc(O)c2)cc1,IC50,second compound 0.1 µM,2220 nM
same,IC50,second compound 0.316 µM,2280 nM
same,IC50,second compound 1 µM,2190 nM
same,IC50,second compound 3.16 µM,2220 nM
same,IC50,second compound 10 µM,2010 nM
same,"viability, T/C","second compound 0.1 µM, first compound 0.00949 µM",92%
same,"viability, T/C","second compound 0.1 µM, first compound 0.03 µM",113%
same,"viability, T/C","second compound 0.1 µM, first compound 0.0949 µM",113%
same,"viability, T/C","second compound 0.1 µM, first compound 0.3 µM",112%
same,"viability, T/C","second compound 0.1 µM, first compound 0.949 µM",123%
same,"viability, T/C","second compound 0.1 µM, first compound 3 µM",28.4%
same,"viability, T/C","second compound 0.316 µM, first compound 0.00949 µM",107%
same,"viability, T/C","second compound 0.316 µM, first compound 0.03 µM",113%
same,"viability, T/C","second compound 0.316 µM, first compound 0.0949 µM",129%
same,"viability, T/C","second compound 0.316 µM, first compound 0.3 µM",120%
same,"viability, T/C","second compound 0.316 µM, first compound 0.949 µM",120%
same,"viability, T/C","second compound 0.316 µM, first compound 3 µM",28.6%
same,"viability, T/C","second compound 1 µM, first compound 0.00949 µM",104%
same,"viability, T/C","second compound 1 µM, first compound 0.03 µM",111%
same,"viability, T/C","second compound 1 µM, first compound 0.0949 µM",121%
same,"viability, T/C","second compound 1 µM, first compound 0.3 µM",116%
same,"viability, T/C","second compound 1 µM, first compound 0.949 µM",120%
same,"viability, T/C","second compound 1 µM, first compound 3 µM",25.8%
same,"viability, T/C","second compound 3.16 µM, first compound 0.00949 µM",106%
same,"viability, T/C","second compound 3.16 µM, first compound 0.03 µM",113%
same,"viability, T/C","second compound 3.16 µM, first compound 0.0949 µM",111%
same,"viability, T/C","second compound 3.16 µM, first compound 0.3 µM",108%
same,"viability, T/C","second compound 3.16 µM, first compound 0.949 µM",124%
same,"viability, T/C","second compound 3.16 µM, first compound 3 µM",27.8%
same,"viability, T/C","second compound 10 µM, first compound 0.00949 µM",100%
same,"viability, T/C","second compound 10 µM, first compound 0.03 µM",99.7%
same,"viability, T/C","second compound 10 µM, first compound 0.0949 µM",88.4%
same,"viability, T/C","second compound 10 µM, first compound 0.3 µM",107%
same,"viability, T/C","second compound 10 µM, first compound 0.949 µM",103%
same,"viability, T/C","second compound 10 µM, first compound 3 µM",23.5%
